Measured values published in patent publication US7112562B2 (Diatos, S.A., priority 2001, dated 2006).

Tested on: Caco-2 cell monolayers
Assay: Trans-epithelial transport of D-[14C]-mannitol and L-[3H]-proline in presence of DPV
Assay type: cell-based
Settings: 30 μg/ml
Procedure: Trans-epithelial transport experiments were carried out.

Sequence: SSRRARRSPRHLGSG (listed as Homo sapiens) [DPV10]
- effect on amounts of D-[14C]-mannitol and L-[3H]-proline associated with the cells at the end of the experiment (Caco-2, 8 hours, FIG. 4): did not affect
- effect on transport of D-[14C]-mannitol or L-[3H]-proline (Caco-2, FIG. 3): did not affect
